The target of test [1] is KDR (Homo sapiens, UniProt P35968). In words: KDR autophosphorylation ELISA in HUVEC cells. Also on record: endogenous in cells; host or cells: HUVEC (Lonza #C2519A). The settings on record: Table 3 Cellular Activities, VEGF165-stimulated, phospho-KDR ELISA. The format is cell-based. The procedure, abridged: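 Read-out: phospho-KDR ELISA on cell lysates, quantified against a phospho-KDR standard, normalised to VEGF-stimulated DMSO (100%) and unstimulated (0%) wells, IC50 by 4-parameter fit. Cells were 24 h serum-starved HUVEC given compound for 1 h, then 100 ng/mL VEGF165 for 5 min.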
Sequence of KDR (P35968 20-1356): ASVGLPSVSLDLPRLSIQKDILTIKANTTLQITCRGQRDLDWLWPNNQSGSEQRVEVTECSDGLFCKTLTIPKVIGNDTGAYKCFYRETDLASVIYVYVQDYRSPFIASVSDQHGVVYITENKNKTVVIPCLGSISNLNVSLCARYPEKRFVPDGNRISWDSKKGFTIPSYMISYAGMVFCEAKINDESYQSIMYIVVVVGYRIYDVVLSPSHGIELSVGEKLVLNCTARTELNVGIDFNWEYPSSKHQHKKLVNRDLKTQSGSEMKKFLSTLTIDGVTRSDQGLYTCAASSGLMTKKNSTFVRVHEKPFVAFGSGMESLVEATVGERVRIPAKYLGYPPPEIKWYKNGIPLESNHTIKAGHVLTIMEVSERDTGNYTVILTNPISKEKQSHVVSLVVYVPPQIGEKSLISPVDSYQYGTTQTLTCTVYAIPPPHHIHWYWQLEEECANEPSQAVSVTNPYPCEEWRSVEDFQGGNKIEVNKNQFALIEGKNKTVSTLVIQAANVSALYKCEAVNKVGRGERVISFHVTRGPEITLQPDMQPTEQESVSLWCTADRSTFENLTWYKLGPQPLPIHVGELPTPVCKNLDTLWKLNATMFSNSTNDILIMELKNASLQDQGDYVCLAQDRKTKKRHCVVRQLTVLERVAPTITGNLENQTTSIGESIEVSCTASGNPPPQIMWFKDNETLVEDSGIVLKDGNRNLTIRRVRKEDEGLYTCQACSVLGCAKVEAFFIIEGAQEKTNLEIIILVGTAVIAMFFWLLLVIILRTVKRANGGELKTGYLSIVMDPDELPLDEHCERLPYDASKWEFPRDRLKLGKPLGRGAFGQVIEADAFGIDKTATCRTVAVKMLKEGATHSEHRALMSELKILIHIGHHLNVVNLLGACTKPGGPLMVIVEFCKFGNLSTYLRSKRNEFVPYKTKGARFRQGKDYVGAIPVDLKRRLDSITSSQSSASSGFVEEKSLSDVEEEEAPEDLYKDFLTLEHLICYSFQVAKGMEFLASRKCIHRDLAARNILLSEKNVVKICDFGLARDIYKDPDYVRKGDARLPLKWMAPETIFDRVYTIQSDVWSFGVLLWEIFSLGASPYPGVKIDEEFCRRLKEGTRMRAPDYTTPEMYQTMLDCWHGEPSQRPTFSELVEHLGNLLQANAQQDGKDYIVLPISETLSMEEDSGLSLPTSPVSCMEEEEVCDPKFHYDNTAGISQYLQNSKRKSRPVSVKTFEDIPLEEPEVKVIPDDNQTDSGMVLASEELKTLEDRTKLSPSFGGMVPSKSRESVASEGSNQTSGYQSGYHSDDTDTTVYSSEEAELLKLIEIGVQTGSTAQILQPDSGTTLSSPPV

The target in test [2] is T1, Mer (Homo sapiens, UniProt Q12866).
T1 construct: host or cells: 293A cells (Thermo Fisher #R70507)
T1 sequence (Q12866 21-999): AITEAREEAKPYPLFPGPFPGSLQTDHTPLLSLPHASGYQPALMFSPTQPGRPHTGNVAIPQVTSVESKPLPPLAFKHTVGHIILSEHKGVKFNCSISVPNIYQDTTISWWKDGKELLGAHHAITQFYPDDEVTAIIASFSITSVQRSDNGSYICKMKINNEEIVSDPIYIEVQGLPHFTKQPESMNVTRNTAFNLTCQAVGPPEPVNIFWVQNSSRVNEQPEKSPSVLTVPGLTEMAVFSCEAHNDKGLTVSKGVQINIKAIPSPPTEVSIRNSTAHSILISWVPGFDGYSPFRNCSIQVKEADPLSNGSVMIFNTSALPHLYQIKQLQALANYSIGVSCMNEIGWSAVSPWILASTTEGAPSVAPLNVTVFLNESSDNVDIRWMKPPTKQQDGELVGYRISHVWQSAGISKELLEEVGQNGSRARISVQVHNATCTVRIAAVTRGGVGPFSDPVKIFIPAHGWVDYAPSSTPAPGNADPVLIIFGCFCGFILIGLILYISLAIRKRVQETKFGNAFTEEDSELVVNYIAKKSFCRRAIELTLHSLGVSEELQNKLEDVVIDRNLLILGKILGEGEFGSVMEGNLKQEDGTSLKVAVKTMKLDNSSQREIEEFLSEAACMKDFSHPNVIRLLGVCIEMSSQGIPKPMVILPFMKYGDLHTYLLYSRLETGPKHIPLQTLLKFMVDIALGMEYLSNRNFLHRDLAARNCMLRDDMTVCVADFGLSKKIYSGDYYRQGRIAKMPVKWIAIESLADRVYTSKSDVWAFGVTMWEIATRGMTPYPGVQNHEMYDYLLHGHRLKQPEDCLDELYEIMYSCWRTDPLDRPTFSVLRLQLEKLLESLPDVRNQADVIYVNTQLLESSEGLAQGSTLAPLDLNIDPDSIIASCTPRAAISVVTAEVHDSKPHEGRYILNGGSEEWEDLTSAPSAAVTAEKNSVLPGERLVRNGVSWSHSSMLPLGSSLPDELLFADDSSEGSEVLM
In words: Mer autophosphorylation ELISA in transient transfected 293A cells. The format is cell-based. The settings on record: Table 3 Cellular Activities; MERTK-transfected 293A cells, phospho-Mer ELISA. In short, it runs like this: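 Phospho-Mer quantified by ELISA in lysates of transiently MERTK-transfected 293A cells after 1 h exposure to an 8-point compound series, serum-free, 0.3% DMSO. Activity normalized between DMSO-treated (100%) and reference inhibitor-treated (0%) lysates; IC50 via 4-parameter nonlinear regression.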
Background: An ELISA detects its analyte on a solid surface through an enzyme-linked reagent.

Consider `COCc1nc(C)c(-c2ccc(F)cn2)c(O)c1C(=O)Nc1ccc(Oc2ccnc3cc(OC)c(OC)nc23)c(F)c1` [Compound 214, N-[4-[(6,7-Dimethoxy-1,5-naphthyridin-4-yl)oxy]-3-fluorophenyl]-5-(5-fluoropyridin-2-yl)-4-hydroxy-2-(methoxymethyl)-6-methylpyridine-3-carboxamid], for which the IC50 in test [1] and in test [2] was no more than 100 nM each time.
For `COc1cc2nccc(Oc3ccc(NC(=O)c4cnc(C)c(-c5ccco5)c4O)cc3F)c2cc1OC` [Compound 259, N-[4-(6,7-Dimethoxyquinolin-4-yl)oxy-3-fluorophenyl]-5-(furan-2-yl)-4-hydroxy-6-methylpyridine-3-carboxamide], the IC50 in test [1] and in test [2] was no more than 100 nM each time.
For `COc1cc2nccc(Oc3ccc(NC(=O)c4ccc(C)n(-c5cc[n+]([O-])cc5)c4=O)cc3F)c2nc1OC` [Compound 231, N-[4-[(6,7-Dimethoxy-1,5-naphthyridin-4-yl)oxy]-3-fluorophenyl]-6-methyl-1-(1-oxidopyridin-1-ium-4-yl)-2-oxopyridine-3-carboxamide], the figures for the IC50 in test [1] and in test [2] were 100 to 300 nM and no more than 100 nM, respectively.
The matching figures for `COc1cc2nccc(Oc3ccc(NC(=O)c4cc(C(C)=O)c(C)n(-c5ccco5)c4=O)cc3)c2nc1OC` [Compound 237, 5-Acetyl-N-[4-[(6,7-dimethoxy-1,5-naphthyridin-4-yl)oxy]phenyl]-1-(furan-2-yl)-6-methyl-2-oxopyridine-3-carboxamide]: 300 to 1000 nM and no more than 100 nM.
`COc1cc2nccc(Oc3ccc(NC(=O)c4nnc(C)c(-c5ccc(F)cn5)c4OC)cc3F)c2nc1OC` [Compound 215, N-[4-[(6,7-Dimethoxy-1,5-naphthyridin-4-yl)oxy]-3-fluorophenyl]-5-(5-fluoropyridin-2-yl)-4-methoxy-6-methylpyridazine-3-carboxamide]: the IC50 – broadly, the point on the concentration scale where inhibition reaches its midpoint – in test [1] is 300 to 1000 nM; in test [2] it was no more than 100 nM.
In the same order, the values of `COc1cc2nccc(Oc3ccc(NC(=O)c4ccc(C)n(-c5ccncc5F)c4=O)cc3F)c2nc1OC` [Compound 220, N-[4-[(6,7-Dimethoxy-1,5-naphthyridin-4-yl)oxy]-3-fluorophenyl]-1-(3-fluoropyridin-4-yl)-6-methyl-2-oxopyridine-3-carboxamide] are no more than 100 nM and no more than 100 nM.
For the compound `COc1cc2nccc(Oc3ccc(NC(=O)c4cc(C(C)=O)c(C)n(-c5ccoc5)c4=O)cc3F)c2nc1OC` [Compound 235, 5-Acetyl-N-[4-[(6,7-dimethoxy-1,5-naphthyridin-4-yl)oxy]-3-fluorophenyl]-1-(furan-3-yl)-6-methyl-2-oxopyridine-3-carboxamide], the IC50 was 300 to 1000 nM in test [1] and no more than 100 nM in test [2].
In the same order, the values of `COc1cc2nccc(Oc3ccc(NC(=O)c4c5n(cc(-c6ccoc6)c4=O)CCOC5)cc3F)c2nc1OC` [Compound 306, N-[4-[(6,7-Dimethoxy-1,5-naphthyridin-4-yl)oxy]-3-fluorophenyl]-7-(furan-3-yl)-8-oxo-3,4-dihydro-1H-pyrido[2,1-c][1,4]oxazine-9-carboxamide] are 300 to 1000 nM and no more than 100 nM.
The matching figures for `COc1cc2nccc(Oc3ccc(NC(=O)c4ccc(C)n(-c5cccnn5)c4=O)cc3F)c2nc1OC` [Compound 234, N-[4-[(6,7-Dimethoxy-1,5-naphthyridin-4-yl)oxy]-3-fluorophenyl]-6-methyl-2-oxo-1-pyridazin-3-ylpyridine-3-carboxamide]: 100 to 300 nM and no more than 100 nM.
With `COc1cc2nccc(Oc3ccc(NC(=O)c4ccc(C)n(-c5cccnc5)c4=O)cc3F)c2nc1OC` [Compound 222, N-[4-[(6,7-Dimethoxy-1,5-naphthyridin-4-yl)oxy]-3-fluorophenyl]-6-methyl-2-oxo-1-pyridin-3-ylpyridine-3-carboxamide], the IC50 in test [1] and in test [2] was no more than 100 nM in each case.

These data come from patent US20230151003A1, “COMPOUNDS AND METHODS OF USE” (Exelixis, Inc., priority 2020, published 2023).
